In PubChem BioAssay (NCI) one finds TGI data, which are given here for twelve molecules.

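Results reflect a 48-hour exposure of cells in 96-well plates to compound at five concentrations. At the TGI there is no net growth.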

Among the test systems are A549 NSCLC; ACHN renal; CCRF-CEM leukemia; MOLT-4 leukemia; NCI-H226 lung; NCI-H522 lung; OVCAR-5 ovarian; SK-MEL-2 melanoma; SK-OV-3 ovarian; T-47D breast; UACC-257 melanoma.
Assay in all cases: NCI-60 cell line screen, 48 h

As for `CC(C)=CC[C@]12CCN(C)[C@H]1N(S(=O)(=O)c1ccccc1)c1ccccc12`, the TGI in the test with A549 NSCLC was greater than 100 µM; with ACHN renal it was greater than 100 µM; with CCRF-CEM leukemia it was greater than 100 µM; in the test on MOLT-4 leukemia, greater than 100 µM; in the test on NCI-H226 lung, greater than 100 µM; in the test on NCI-H522 lung, 41.8 µM. For the same molecule, the TGI in the test with OVCAR-5 ovarian was greater than 100 µM; with SK-MEL-2 melanoma, 55.5 µM; in the test with SK-OV-3 ovarian it was greater than 100 µM; with T-47D breast it was greater than 76 µM; in the test on UACC-257 melanoma, greater than 89.6 µM.
As to `Cc1ccc(C2(c3ccc(F)cc3)OC(=O)c3ccccc32)c(O)c1` (stereo not drawn), the TGI in the test with A549 NSCLC amounted to 47.2 µM; in the test on ACHN renal, 28.2 µM; in the test on CCRF-CEM leukemia, 94.2 µM; with MOLT-4 leukemia, 76.3 µM; with NCI-H226 lung it was 76.2 µM; in the test on NCI-H522 lung it was 35.9 µM. In addition, the TGI in the test with OVCAR-5 ovarian stood at 28.5 µM; in the test on SK-MEL-2 melanoma, 30.2 µM; in the test on SK-OV-3 ovarian, 26.4 µM; in the test with T-47D breast, 28.1 µM; in the test with UACC-257 melanoma, 31 µM.
For `COc1ccccc1C(=O)NCC1CCCN2CCCCC12` (stereo not drawn), the TGI with A549 NSCLC, in the test with ACHN renal, with CCRF-CEM leukemia, with MOLT-4 leukemia, in the test on NCI-H226 lung and in the test on NCI-H522 lung was greater than 100 µM throughout. Further, the TGI with OVCAR-5 ovarian, in the test on SK-MEL-2 melanoma, in the test with SK-OV-3 ovarian, with T-47D breast and in the test with UACC-257 melanoma was greater than 100 µM in each case.
Turning to `N/C1=C/C(=O)NC(=O)c2c(c3ccccc3oc2=O)C1`, the TGI in the test on A549 NSCLC, with ACHN renal, with CCRF-CEM leukemia, with MOLT-4 leukemia, in the test on NCI-H226 lung and in the test on NCI-H522 lung was greater than 100 µM each time. For the same molecule, the TGI in the test on OVCAR-5 ovarian, in the test with SK-MEL-2 melanoma, with T-47D breast and in the test with UACC-257 melanoma was greater than 100 µM each time.
On to `CC1OC2OC3C(OCC(O)C3O)OC(=O)[C@]34CCC(C)(C)CC3C3=CCC5[C@@]6(C)C[C@H](O)[C@H](OC7OC(CO)C(O)C(O)C7OC7OCC(OC(=O)CC(C)(O)CC(=O)OC1C(O)C2O)C(O)C7O)[C@@](C)(CO)C6CC[C@@]5(C)[C@]3(C)CC4` (stereo partly drawn), for which the TGI was determined as 10.7 µM in the test on A549 NSCLC; 18.3 µM in the test on ACHN renal; 24 µM in the test with CCRF-CEM leukemia; 23.1 µM in the test with MOLT-4 leukemia; 35.9 µM in the test with NCI-H226 lung; 12 µM in the test on NCI-H522 lung. Also, the TGI turned out to be 7 µM in the test on OVCAR-5 ovarian; 18.8 µM with SK-MEL-2 melanoma; 10.4 µM in the test with SK-OV-3 ovarian; 17.6 µM with T-47D breast; 6.69 µM with UACC-257 melanoma.
For the molecule `CCOC(=O)C1(C#N)CC1`, the TGI in the test on A549 NSCLC, in the test on ACHN renal, in the test with CCRF-CEM leukemia, with MOLT-4 leukemia, with NCI-H226 lung and in the test with NCI-H522 lung was greater than 100 µM throughout. Moreover, the TGI in the test with OVCAR-5 ovarian, in the test on SK-MEL-2 melanoma, in the test on SK-OV-3 ovarian, in the test on T-47D breast and with UACC-257 melanoma was greater than 100 µM each time.
For the molecule `C[C@@H]1CC(=O)C[C@@H]2CC[C@H]3[C@@H]4CC[C@H](OC(=O)c5cccc6cc7ccccc7nc56)[C@H]4CC[C@@H]3[C@H]21`, the TGI in the test on A549 NSCLC is 83.2 µM; in the test with ACHN renal, 29.3 µM; in the test on MOLT-4 leukemia it was 31.7 µM; in the test on NCI-H226 lung, 63.7 µM; in the test on NCI-H522 lung, 20.1 µM; in the test on OVCAR-5 ovarian, 34.9 µM. The TGI in the test with SK-MEL-2 melanoma was 38 µM; in the test on SK-OV-3 ovarian, 66.7 µM; in the test with T-47D breast, 37.5 µM; in the test with UACC-257 melanoma, 30.8 µM.
Regarding `COc1cc2c(/C=C3/C(=O)Nc4ccc(Cl)cc43)c(Cl)[nH]c2cc1C`, the TGI in the test with A549 NSCLC amounted to 16.2 µM; in the test on ACHN renal, 10.8 µM; with CCRF-CEM leukemia, 0.933 µM; in the test with MOLT-4 leukemia, 0.814 µM; in the test on NCI-H226 lung, 13.3 µM; with NCI-H522 lung, 7.01 µM. Further, the TGI in the test on OVCAR-5 ovarian worked out at 17.1 µM; with SK-MEL-2 melanoma, 29.8 µM; with SK-OV-3 ovarian, 10.6 µM; with T-47D breast it was 26.9 µM; in the test on UACC-257 melanoma, 22.4 µM.
As to `C/C(=N\Nc1nc2ccccc2s1)c1cc2ccccc2cn1`, the TGI with A549 NSCLC was greater than 100 µM; with ACHN renal, greater than 100 µM; in the test on CCRF-CEM leukemia, 8.04 µM; in the test with NCI-H226 lung, 7.56 µM; in the test with NCI-H522 lung, 26 µM; in the test with OVCAR-5 ovarian, 54.5 µM. The TGI was greater than 100 µM with SK-MEL-2 melanoma, 10.7 µM in the test on SK-OV-3 ovarian, 23.2 µM in the test with T-47D breast and 57.8 µM in the test on UACC-257 melanoma.
For `COC(=O)Nc1nc2ccc(S(=O)(=O)N3CCOCC3)cc2[nH]1`, the TGI in the test with A549 NSCLC, with ACHN renal, in the test with CCRF-CEM leukemia, in the test with MOLT-4 leukemia, in the test on NCI-H226 lung and with NCI-H522 lung was greater than 100 µM in each case. Further, the TGI with OVCAR-5 ovarian, in the test with SK-MEL-2 melanoma, in the test with SK-OV-3 ovarian, in the test with T-47D breast and with UACC-257 melanoma was greater than 100 µM each time.
As for `CCCCCCCCCCCCCCCCNc1ccn(C2CC(O)C(COC(c3ccccc3)(c3ccccc3)c3ccc(OC)cc3)O2)c(=O)n1` (stereo not drawn), the TGI in the test on A549 NSCLC, in the test with ACHN renal, with CCRF-CEM leukemia, with MOLT-4 leukemia, in the test on NCI-H226 lung and with NCI-H522 lung was greater than 100 µM in each case. In addition, the TGI in the test with OVCAR-5 ovarian, in the test on SK-MEL-2 melanoma, in the test on SK-OV-3 ovarian and in the test with T-47D breast was greater than 100 µM throughout.
Regarding `OC1COC2CC(Nc3ccccn3)OC12` (stereo not drawn), the TGI in the test with A549 NSCLC, in the test on ACHN renal, in the test with CCRF-CEM leukemia, in the test on MOLT-4 leukemia, with NCI-H226 lung and in the test with NCI-H522 lung was greater than 100 µM in each case. The TGI in the test on OVCAR-5 ovarian, in the test on SK-MEL-2 melanoma, in the test on SK-OV-3 ovarian, with T-47D breast and in the test with UACC-257 melanoma was greater than 100 µM throughout.
